Assay results: paper PMC7583046, “The Paralogue of the Intrinsically Disordered Nuclear Protein 1 Has a Nuclear Localization Sequence that Binds to Human Importin α3” (International Journal of Molecular Sciences, 2020)
“Also recorded” adds a separate entry of the source.

How the values were obtained:
[1] = Aggregation / self-association tendency; type: physicochemical; conditions: isolated peptide, refers to Section 2.2.1
∆Impα3 = conditions: 50 mM phosphate pH 7.0, 298 K; NUPR1L 15 μM with importin 5 μM, or NLS-NUPR1L 10 μM with importin 4 μM
Procedure: (§1) Fluorescence spectra were collected on a Cary Varian spectrofluorometer (Agilent, Santa Clara, CA, USA), interfaced with a Peltier unit. All experiments were carried out at 298 K. Following the standard protocols used in our laboratories, the samples were prepared the day before and left overnight at 278 K; before experiments, samples were left for 1 h at 298 K. A 1 cm pathlength quartz cell (Hellma, Kruibeke, Belgium) was used. The concentration of NLS-NUPR1L was 10 μM and those of both importins were 4 μM. Samples containing the isolated peptide, the isolated importin species, and a mixture of both (at those indicated concentrations) were prepared. Experiments were acquired in 50 mM phosphate buffer (pH 7.0). For the experiments with intact NUPR1L, a concentration of 15 μM (in protomer units) was used and that of each importin was 5 μM.
(§2) Protein samples were excited either at 280 or 295 nm. The other experimental parameters and the buffers used have been described elsewhere. […]
(§3) Far-UV CD spectra were collected on a Jasco J810 spectropolarimeter (Jasco, Tokyo, Japan) with a thermostated cell holder, and interfaced with a Peltier unit at 298 K. The instrument was periodically calibrated with (+)-10-camphorsulphonic acid. […] The concentration of each polypeptide (importin species and either NLS-NUPR1L or intact NUPR1L) was the same as that used in the fluorescence experiments (Section 4.4). […]

Impα3 = conditions: 50 mM phosphate pH 7.0, 298 K; NLS-NUPR1L 10 μM, importin 4 μM
Procedure: as §1, §2, §3

[2] = target: T1, ∆Impα3 (Impα3 without IBB, residues 64-521) (Homo sapiens, UniProt O00629); test: Isothermal titration calorimetry, binding to ∆Impα3; conditions: Tris 50 mM pH 8, 298 K
T1 construct: codon-optimized, His-tagged ∆Impα3 (residues 64-521) were carried out using BL21 (DE3) cells; His-tag; made in house; host or cells: E. coli BL21 (DE3)
T1 sequence (O00629 64-521): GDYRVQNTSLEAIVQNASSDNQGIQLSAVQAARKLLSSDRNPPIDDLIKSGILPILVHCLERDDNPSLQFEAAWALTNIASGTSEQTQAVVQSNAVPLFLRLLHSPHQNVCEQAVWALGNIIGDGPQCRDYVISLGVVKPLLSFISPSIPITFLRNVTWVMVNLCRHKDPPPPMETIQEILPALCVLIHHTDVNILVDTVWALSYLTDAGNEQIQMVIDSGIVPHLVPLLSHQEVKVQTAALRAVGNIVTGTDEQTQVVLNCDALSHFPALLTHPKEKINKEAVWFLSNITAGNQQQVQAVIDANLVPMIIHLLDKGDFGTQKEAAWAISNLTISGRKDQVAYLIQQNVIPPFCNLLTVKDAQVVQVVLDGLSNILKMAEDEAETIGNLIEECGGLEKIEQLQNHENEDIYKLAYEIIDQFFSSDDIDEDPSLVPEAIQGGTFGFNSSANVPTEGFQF
From the text: Figure 4 Binding of NLS-NUNPR1L to both importin species: (A) Titration curve monitoring the changes of Impα3 fluorescence at 340 nm in the presence of NLS-NUPR1L, after excitation at 280 nm. (B) Titration curve monitoring the changes of ∆Impα3 fluorescence at 340 nm in the presence of NLS-NUPR1L, after excitation at 280 nm. […] (C) Calorimetric binding isotherms (ligand normalized heat effect per injection as a function of the ligand/protein molar ratio) for the interaction of NLS-NUPR1L with Impα3 (left) and ∆Impα3 (right) are shown, with the thermogram (raw thermal power data as a function of time) at the top of each panel. Binding parameters were estimated by non-linear least squares regression data analysis of the interaction isotherms applying a single ligand binding site model implemented in Origin 7.0. (OriginLab, Northampton, MA, USA).
The experimental set-up and data processing of ITC experiments have been described previously. […] The temperature for all experiments was 298 K. The experiments were analyzed applying a model considering a single ligand binding site (1:1 stoichiometry for the NLS-NUPR1L/Impα3 (or ∆Impα3) interaction) implemented in Origin 7.0 (OriginLab, Northampton, MA, USA).

[3] = Conformation of isolated peptide by fluorescence, far-UV CD and NMR; type: physicochemical
Procedure: Appropriate blank corrections were made in all spectra.
All spectra were corrected by subtracting the corresponding baseline.
An amount of 128 scans was acquired with 16 K acquisition points for the homonuclear 1D-^1H-NMR spectrum, and using a peptide concentration of 1.0–1.2 mM. Water signal was suppressed using the WATERGATE sequence. The spectrum was processed with Bruker TopSpin 2.1 (Bruker GmbH, Karlsruhe, Germany), after zero-filling and apodization with an exponential window.
Two-dimensional spectra were acquired in each dimension in the phase-sensitive mode using the time-proportional-phase incrementation technique (TPPI) and a spectral width of 7801.69 Hz; the final concentration of the NLS-NUPR1L was the same as that used in the 1D experiments. Standard TOCSY (Total correlation spectroscopy) (with a mixing time of 80 ms) and NOESY experiments (with a mixing time of 250 ms) were performed by acquiring a data matrix size of 4096 × 512 points. The DIPSI (decoupling in the presence of scalar interactions) spin-lock sequence was used in the TOCSY experiments with 1 s of relaxation time. Typically, 96 scans were acquired per increment in the first dimension, and the residual water signal was removed using the WATERGATE sequence. NOESY spectra were collected typically with 96 scans per increment in the first dimension, with the residual water signal removed again by the WATERGATE sequence, and with 1 s of relaxation time. Data were zero-filled, resolution-enhanced with a square sine-bell window function optimized in each spectrum, baseline-corrected, and processed with the Bruker TopSpin 2.1 software (Bruker GmbH, Karlsruhe, Germany). The ^1H resonances were assigned by standard sequential assignment processes. The chemical shift values of Hα protons in random-coil regions were obtained from tabulated data, corrected by neighbouring residue effects.

## Ac-RTRREQALRTNWPAPGGHERKVAQ-NH2 [NLS-NUPR1L]
[1]
  tendency to aggregate: did not have any tendency to aggregate
∆Impα3
  spectral changes upon binding to ∆Impα3 (fluorescence and/or far-UV CD): there were changes in the spectra upon addition of NLS-NUPR1L to each of the importin species
Impα3
  spectral changes upon binding to Impα3 (fluorescence and CD): there were changes in the spectra upon addition of NLS-NUPR1L to each of the importin species
[2]
  n, stoichiometry (ITC), ∆Impα3: 0.75 ± 0.06
  ∆H (ITC), ∆Impα3: -2.4 ± 0.5 kcal/mol
[3]; 298 K, 50 mM phosphate pH 7.0
  far-UV CD minimum: ~ 203 nm
[3]; excitation 280 nm, 50 mM phosphate pH 7.0, 298 K
  fluorescence emission maximum: 353 nm
[3]; fluorescence, far-UV CD and NMR
  conformation in aqueous solution: random-coil conformation; also recorded: disordered in aqueous solution; also recorded: did not have any propensity to acquire helix- or turn-like conformations
